For one test, the system named is HT-29 cells. As to the kind of experiment: CellTiter-Glo luminescent cell viability assay with HT-29 cells (72h incubation). Format: cell-based, human. The note with it: Homo sapiens, HT-29, HT29 cells, read-out: CTG HT29. A digest of the protocol:
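400 cells per well in DMEM/10% FCS were dosed after 24 h and kept 72 h at 37 °C, 5% CO2. ATP-based luminescence (CellTiter-Glo) normalized to DMSO and 10 μM staurosporine controls; IC50 by dose-response fit.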
In general terms: In ATP-based viability assays light output follows the ATP content of the culture.

The subject of test [1] is A549 (human lung carcinoma cell line). As to the kind of experiment: Glo assay of A549 cells (Table 3; ProteasomeGlo plating scheme). Format: cell-based. Particulars: Homo sapiens; A549 cells; read-out: PGLo A549. In short, it runs like this:
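Cells plated in 384 wells; compound, DMSO, staurosporine transferred by ECHO; 105 min, 37° C., 5% CO2; Proteasome-Glo (Suc-LLVY-Glo) reagent added; dark 10-15 min; luminescence; IC50 nM.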

Structures are written as SMILES.

For `CC(=O)N[C@H]1CCC(=O)N2CCCC(C2)Oc2ccc(C)c(c2)CNC(=O)[C@H](CCc2ccccc2)NC1=O` (stereo partly drawn) [Compound 148, N-((7S,10S)-3^4-methyl-6,9,13-trioxo-7-phenethyl-2-oxa-5,8-diaza-1(3,1)-piperidina-3(1,3)-benzenacyclotridecaphane-10-yl)acetamide], the IC50 with HT-29 cells is 100 to 500 nM; in test [1], greater than 5000 nM.
For the compound `Cc1ccc2cc1CNC(=O)[C@H](CCc1ccccc1)NC(=O)[C@@H](NC(=O)C1CCNCC1(F)F)CC(=O)N1CCCC(CCO2)C1` (stereo partly drawn) [Compound 152, 3,3-difluoro-N-((9S,12S)-5^4-methyl-8,11,14-trioxo-9-phenethyl-4-oxa-7,10-diaza-1(3,1)-piperidina-5(1,3)-benzenacyclotetradecaphane-12-yl)piperidine-4-carboxamide], the IC50 (in the test with HT-29 cells; in test [1]) was less than 100 nM throughout.
As to `Cc1ccc2cc1CNC(=O)[C@H](CCc1ccccc1)NC(=O)[C@@H](NC(=O)C1CCC(C(F)(F)F)N1)CC(=O)N1CCCC(CCO2)C1` (stereo partly drawn) [Compound 157, N-((9S,12S)-5^4-methyl-8,11,14-trioxo-9-phenethyl-4-oxa-7,10-diaza-1(3,1)-piperidina-5(1,3)-benzenacyclotetradecaphane-12-yl)-5-(trifluoromethyl)pyrrolidine-2-carboxamide], the IC50 in the test with HT-29 cells is less than 100 nM; in test [1], 100 to 500 nM.
With `Cc1ccc2cc1CNC(=O)[C@H](CCc1ccccc1)NC(=O)[C@@H](NC(=O)C1(N)COC1)CC(=O)N1CCCC(CCO2)C1` (stereo partly drawn) [Compound 158, 3-amino-N-((9S,12S)-5^4-methyl-8,11,14-trioxo-9-phenethyl-4-oxa-7,10-diaza-1(3,1)-piperidina-5(1,3)-benzenacyclotetradecaphane-12-yl)oxetane-3-carboxamide], the IC50 (in the test with HT-29 cells; in test [1]) was less than 100 nM in each case.
As to `Cc1ccc2cc1CNC(=O)[C@H](CCc1ccccc1)NC(=O)[C@@H](NC(=O)C1(N)CCOC1)CC(=O)N1CCCC(CCO2)C1` (stereo partly drawn) [Compound 159, 3-amino-N-((9S,12S)-5^4-methyl-8,11,14-trioxo-9-phenethyl-4-oxa-7,10-diaza-1(3,1)-piperidina-5(1,3)-benzenacyclotetradecaphane-12-yl)tetrahydrofuran-3-carboxamide], the IC50 in the test with HT-29 cells was less than 100 nM; in test [1], 100 to 500 nM.
On to `Cc1ccc2cc1CNC(=O)[C@H](CCc1ccccc1)NC(=O)[C@@H](NC(=O)C1CCN1)CC(=O)N1CCCC(CCO2)C1` (stereo partly drawn) [Compound 160, (2R)-N-((9S,12S)-5^4-methyl-8,11,14-trioxo-9-phenethyl-4-oxa-7,10-diaza-1(3,1)-piperidina-5(1,3)-benzenacyclotetradecaphane-12-yl)azetidine-2-carboxamide], for which the IC50 was less than 100 nM in the test with HT-29 cells and 100 to 500 nM in test [1].
With `CC(=O)N[C@H]1CCC(=O)NCCCCOc2ccc(C)c(c2)CNC(=O)[C@H](CCc2ccccc2)NC1=O` [Compound 171, N-((11S,14S)-1^4-methyl-8,12,15-trioxo-14-phenethyl-2-oxa-7,13,16-triaza-1(1,3)-benzenacycloheptadecaphane-11-yl)acetamide], the IC50 in the test on HT-29 cells was in the range of 100 to 500 nM; in test [1], 500 to 1000 nM.
In the case of `Cc1nc2cc(CCC(=O)N[C@H]3CC(=O)N4CCCC(CCOc5ccc(C)c(c5)CNC(=O)[C@H](CCc5ccccc5)NC3=O)C4)ccc2[nH]1` (stereo partly drawn) [Compound 174, 3-(2-methyl-1H-benzo[d]imidazol-6-yl)-N-((9S,12S)-5^4-methyl-8,11,14-trioxo-9-phenethyl-4-oxa-7,10-diaza-1(3,1)-piperidina-5(1,3)-benzenacyclotetradecaphane-12-yl)propanamide], the IC50 (in the test with HT-29 cells; in test [1]) was less than 100 nM in each case.
As to `Cc1ccc2cc1CNC(=O)[C@H](CCc1ccccc1)NC(=O)[C@@H](NC(=O)CCc1ccc(Br)cc1)CC(=O)N1CCCC(CCO2)C1` (stereo partly drawn) [Compound 175, 3-(4-bromophenyl)-N-((9S,12S)-5^4-methyl-8,11,14-trioxo-9-phenethyl-4-oxa-7,10-diaza-1(3,1)-piperidina-5(1,3)-benzenacyclotetradecaphane-12-yl)propanamide], the IC50 (in the test on HT-29 cells; in test [1]) was less than 100 nM in each case.
